Reference: patent EP2540163A1, “Nematocide N-cyclopropyl-sulfonylamide derivatives” (Bayer CropScience AG, priority 2011, dated 2013)

Experiments:
[1] = logP by HPLC on reversed-phase column (C 18), EEC Directive 79/831 Annex V.A8, Method A (0.1% aqueous phosphoric acid / acetonitrile, 43°C); assay type: physicochemical; conditions: c18 reversed-phase hplc
Protocol: Calibration was carried out using unbranched alkan-2-ones (having 3 to 16 carbon atoms) with known logP values (determination of the logP values by the retention times using linear interpolation between two successive alkanones).

Meloidogyne incognita = assay type: in vivo; conditions: 336 h, 20 ppm
Protocol: Meloidogyne incognita - test
To produce a suitable preparation of active compound, 1 part by weight of active compound is mixed with the stated amount of solvent, and the concentrate is diluted with emulsifier-containing water to the desired concentration.
Vessels are filled with sand, a solution of the active ingredient, a suspension containing eggs and larvae of Meloidogyne incognita and salad seeds. The salad seeds germinate and the seedlings grow. Galls develop in the roots.
After 14 days the nematicidal activity is determined on the basis of the percentage of gall formation. 100% means that no galls were found; 0% means that the number of galls found on the roots of the treated plants was equal to that in untreated control plants.

[2] = LogP method A: HPLC reversed-phase C 18, 43°C, 0.1% aqueous phosphoric acid / acetonitrile

chromatographic logP [1, 2] | SMILES | further results
3.1 | O=C(c1cccnc1)N(C1CC1)S(=O)(=O)c1ccc(Cl)c(C(F)(F)F)c1 [compound 638] | nematicidal activity determined on the basis of the percentage of gall formation (Meloidogyne incognita): 100%
2.31 | Cn1cc(C(=O)N(C2CC2)S(=O)(=O)c2ccccc2Cl)c(I)n1 [compound 214] | –
4.08 | CCOC(=O)c1[nH]c(C)c(C(=O)N(C2CC2)S(=O)(=O)c2ccc(Cl)c(C(F)(F)F)c2)c1C [compound 31] | –
4.56 | Cc1nn(C)c(Oc2cccc(Cl)c2)c1C(=O)N(C1CC1)S(=O)(=O)c1ccc(Cl)c(C(F)(F)F)c1 [compound 404] | –
1.96 | Cc1nn(C)c(F)c1C(=O)N(C1CC1)S(=O)(=O)c1cccnc1Cl [compound 446] | –
3.35 | Cc1nn(C)c(F)c1C(=O)N(C1CC1)S(=O)(=O)c1ccc(Cl)c(Cl)c1 [compound 178] | –
2.58 | Cc1n[nH]c(C)c1C(=O)N(C1CC1)S(=O)(=O)c1ccc(C(F)(F)F)cc1 [compound 402] | –
3 | Cc1n[nH]c(C)c1C(=O)N(C1CC1)S(=O)(=O)c1ccc(Cl)c(C(F)(F)F)c1 [compound 408] | –
4.03 | Cc1c(C(=O)N(C2CC2)S(=O)(=O)c2ccc(Cl)cc2Cl)sc(=O)n1Cc1ccccc1 [compound 627] | –
– | Cc1nn(C)c(F)c1C(=O)N(C1CC1c1ccccc1)S(=O)(=O)c1ccccc1Cl (stereo not drawn) [compound 676] | chromatographic logP ([1]; LogP method A: HPLC, 43°C, 0.1% aqueous phosphoric acid, acetonitrile, gradient 10% to 90% acetonitrile): 3.27
2.8 | Cc1ncc(C(=O)N(C2CC2)S(=O)(=O)c2cccc(Cl)c2)s1 [compound 60] | –
3.63 | Cc1nc(C(=O)N(C2CC2)S(=O)(=O)c2ccc(Cl)c(C(F)(F)F)c2)cs1 [compound 69] | nematicidal activity determined on the basis of the percentage of gall formation (Meloidogyne incognita): 80%
3.27 | Cn1nc(C(F)(F)F)c(C(=O)N(C2CC2)S(=O)(=O)c2ccccc2Cl)c1Cl [compound 208] | –
2.01 | COCCn1c(C)c(C(=O)N(C2CC2)S(=O)(=O)c2cccc(Cl)c2)sc1=O [compound 609] | –
2.82 | Cc1nn(C)c(F)c1C(=O)N(C1CC1)S(=O)(=O)c1cccc(Cl)c1 [compound 176] | –
2.01 | COCCn1c(C)c(C(=O)N(C2CC2)S(=O)(=O)c2ccc(Cl)cc2Cl)sc1=O [compound 620] | –
4.82 | CCc1onc(C(C)C)c1C(=O)N(C1CC1)S(=O)(=O)c1ccc(Cl)c(C(F)(F)F)c1 [compound 594] | –
3.01 | CC(C)c1c(C(=O)N(C2CC2)S(=O)(=O)c2ccc(Cl)c(C(F)(F)F)c2)sc(=O)n1C1CC1 [compound 633] | –
2.8 | Cc1nn(C)c(C)c1C(=O)N(C1CC1)S(=O)(=O)c1ccc(Cl)cc1Cl [compound 413] | –
2.01 | CC(C)c1c(C(=O)N(C2CC2)S(=O)(=O)c2cccc(Cl)c2)sc(=O)n1C1CC1 [compound 617] | –
2.58 | O=C(c1cccnc1Cl)N(C1CC1)S(=O)(=O)c1ccccc1Cl [compound 644] | –
2.01 | Cc1c(C(=O)N(C2CC2)S(=O)(=O)c2ccc(Cl)c(C(F)(F)F)c2)sc(=O)n1C [compound 622] | –
2.91 | Cc1ncc(C(=O)N(C2CC2)S(=O)(=O)c2ccc(Cl)cc2Cl)s1 [compound 64] | –

chromatographic logP [1, 2] | SMILES | further results
2.3 | O=C(c1cccnc1)N(C1CC1)S(=O)(=O)c1cccc(Cl)c1 [compound 642] | –
2.52 | Cc1nn(C)c(F)c1C(=O)N(C1CC1)S(=O)(=O)c1c(Cl)cccc1Cl [compound 218] | –
1.97 | Cn1nc(C(=O)N(C2CC2)S(=O)(=O)c2ccccc2Cl)n(C)c1=O [compound 608] | –
3.46 | CCOC(=O)c1[nH]c(C)c(C(=O)N(C2CC2)S(=O)(=O)c2cccc(Cl)c2)c1C [compound 29] | –
3.46 | Cc1ncc(C(=O)N(C2CC2)S(=O)(=O)c2ccc(Cl)c(C(F)(F)F)c2)s1 [compound 62] | –
4.46 | Cc1nn(C)c(Oc2cccc(Cl)c2)c1C(=O)N(C1CC1)S(=O)(=O)c1ccc(Cl)c(Cl)c1 [compound 405] | –
3.03 | Cc1nc(C(=O)N(C2CC2)S(=O)(=O)c2ccc(Cl)cc2Cl)cs1 [compound 71] | –
2.91 | O=C(c1cccnc1Cl)N(C1CC1)S(=O)(=O)c1cccc(Cl)c1 [compound 643] | –
4.18 | CCc1onc(C(C)C)c1C(=O)N(C1CC1)S(=O)(=O)c1cccc(Cl)c1 [compound 589] | –
3.58 | O=C(c1cc(Br)c(Br)o1)N(C1CC1)S(=O)(=O)c1ccccc1Cl [compound 1] | –
2.01 | Cc1c(C(=O)N(C2CC2)S(=O)(=O)c2ccc(Cl)c(Cl)c2)sc(=O)n1C [compound 623] | –
2.78 | CC1=C(C(=O)N(C2CC2)S(=O)(=O)c2ccccc2Cl)OCCS1 [compound 652] | –
4.16 | Cc1cc(C)c(C(=O)N(C2CC2)S(=O)(=O)c2ccc(Cl)c(Cl)c2Cl)c(Cl)n1 [compound 651] | –
2.71 | Cn1cc(C(=O)N(C2CC2)S(=O)(=O)c2ccccc2Cl)c(C(F)(F)F)n1 [compound 200] | –
4.77 | CCc1onc(C(C)C)c1C(=O)N(C1CC1)S(=O)(=O)c1ccc(Cl)c(Cl)c1 [compound 595] | –
4.41 | CCc1onc(C(C)C)c1C(=O)N(C1CC1)S(=O)(=O)c1ccc(Cl)cc1Cl [compound 596] | –
2.01 | COCCn1c(C)c(C(=O)N(C2CC2)S(=O)(=O)c2ccc(Cl)c(C(F)(F)F)c2)sc1=O [compound 619] | –
3.94 | Cc1nn(C)c(Oc2cccc(Cl)c2)c1C(=O)N(C1CC1)S(=O)(=O)c1cccc(Cl)c1 [compound 399] | –
3.01 | Cc1c(C(=O)N(C2CC2)S(=O)(=O)c2ccc(Cl)c(Cl)c2)sc(=O)n1Cc1ccccc1 [compound 626] | –
2.17 | Cc1nn(C)c(C)c1C(=O)N(C1CC1)S(=O)(=O)c1ccccc1Cl [compound 215] | –
2.01 | CCc1c(C(=O)N(C2CC2)S(=O)(=O)c2cccc(Cl)c2)sc(=O)n1C1CC1 [compound 615] | –
3.35 | Cc1nn(C)c(F)c1C(=O)N(C1CC1)S(=O)(=O)c1ccc(Cl)c(Cl)c1Cl [compound 212] | –
4.08 | CCc1c(C(=O)N(C2CC2)S(=O)(=O)c2ccc(Cl)c(Cl)c2)sc(=O)n1C1CC1 [compound 630] | –
